Laboratory results from US20100197495A1, “Synergistic Mixtures and/or Compositions With a High Fungicidal Activity” (priority 2005, published 2010).

Test system: Plasmopara viticola
Test: 7-day preventive activity on Plasmopara viticola on vines, preventive leaf application (greenhouse test)
Format: in vivo
Parameters: key to Activity (y): scale 100 = healthy plant to 0 = completely infected plant
Experimental: Efficacy of the mixtures of one or more compounds belonging to the FOS and SIN groups of compounds in the control of Plasmopara viticola on vines in preventive leaf application (greenhouse test) (Table 1-Table 3) and of the compositions of said mixtures with a further fungicidal component (Table 4).
Leaves of cultivar Merlot vines, grown in vases, in a conditioned environment (20±1° C., 70% relative humidity) are treated by spraying both sides of the leaves with the mixtures under examination dispersed in an aqueous solution containing a 0.3% of tween 20.
After remaining 7 days in a conditioned environment, the plants are infected on the lower side with an aqueous suspension of spores of Plasmopara viticola (200,000 spores per cm^3).
The plants are kept in a humidity saturated environment, at 21° C., for the incubation period of the fungus and, at the end of this period (7 days), the fungicidal activity is evaluated according to an evaluation percentage scale from 100 (healthy plant) to 0 (completely infected plant).
When the fungicidal activity found experimentally is greater than the value of E, this activity is considered a synergistic effect.

[1] = Table 4, alone, 125 ppm of equivalent phosphorous acid
[2] = compound alone, 250 ppm of equivalent phosphorous acid, scale 100 (healthy plant) to 0 (completely infected plant)
[3] = Table 4, alone, 32 ppm of equivalent metal copper

## O=[PH]([O-])[O-].[Zn+2] [ZnHPO3, zinc salt of phosphorous acid]
[1]
  % activity of each single compound: ZnHPO3: 125 ppm** (18) %
[2]
  Activity (y): 35

## titanium dioxide [TiO2]
SIN compound alone, 250 ppm
  Activity (y): 13
Table 3, alone, 125 ppm
  % activity of each single compound: TiO2: 125 ppm (3) %
Table 4, alone, 125 ppm
  % activity of each single compound: TiO2: 125 ppm (3) %

## [C-]#N.[C-]#N.[C-]#N.[C-]#N.[C-]#N.[C-]#N.[C-]#N.[C-]#N.[C-]#N.[C-]#N.[C-]#N.[C-]#N.[C-]#N.[C-]#N.[C-]#N.[C-]#N.[C-]#N.[C-]#N.[Fe+2].[Fe+2].[Fe+2].[Fe+3].[Fe+3].[Fe+3].[Fe+3] [Prussian blue]
SIN compound alone, 250 ppm
  Activity (y): 32
Table 3, alone, 125 ppm
  % activity of each single compound: Prussian blue: 125 ppm (5) %
Table 4, alone, 125 ppm
  % activity of each single compound: Prussian blue: 125 ppm (5) %

## [Cu+2].c1ccc2c(c1)-c1nc-2nc2[n-]c(nc3nc(nc4[n-]c(n1)c1ccccc41)-c1ccccc1-3)c1ccccc21 [Cu(II) phthalocyanine, copper phthalocyanine]
SIN compound alone, 32 ppm of equivalent metal
  Activity (y): 10
[3]
  % activity of each single compound: (8) %

## O=C(O)c1ccccc1[O-].O=C(O)c1ccccc1[O-].[Cu+2] [Cu(SA)]
[3]
  % activity of each single compound: Cu(SA): 32 ppm*** (42) %

## [O]=[Zn] [ZnO, zinc oxide]
SIN compound alone, 250 ppm
  Activity (y): 30
Table 3, alone, 125 ppm
  % activity of each single compound: ZnO: 125 ppm (14) %
Table 4, alone, 125 ppm
  % activity of each single compound: ZnO: 125 ppm (14) %

## O=[PH]([O-])[O-].[Cu+2] [CuHPO3, copper (II) salt of phosphorous acid]
Table 3, alone, 250 ppm of equivalent phosphorous acid
  % activity of each single compound: CuHPO3: 250 ppm** (55) %
[1]
  % activity of each single compound: CuHPO3: 125 ppm** (32) %
[2]
  Activity (y): 55

## O=c1ccc2cc(O[C@@H]3O[C@H](CO)[C@@H](O)[C@H](O)[C@H]3O)c(O)cc2o1 [Esculin, esculin]
SIN compound alone, 25 ppm
  Activity (y): 10

## silicic acid
SIN compound alone, 14 ppm of equivalent metal
  Activity (y): 14

## COC(=O)CC(NC(=O)[C@@H](NC(=O)OC(C)C)C(C)C)c1ccc(Cl)cc1 (stereo partly drawn) [IR5885, methyl [S—(R,S)]-[3-(N-isopropoxycarbonylvalinyl)-amino]-3-(4-chlorophenyl)propanoate]
Table 4, alone, 0.45 ppm
  % activity of each single compound: IR5885: 0.45 ppm (41) %

## COC(=O)[C@@H](C)N(C(=O)Cc1ccccc1)c1c(C)cccc1C [IR6141, methyl N-(phenylacetyl)-N-2,6-xylyl-R-alaninate]
Plasmopara viticola, Table 4, alone, 5 ppm, read-out: % activity of each single compound
  inhibition at 5 ppm: 45%

## CC(=O)Oc1ccccc1C(=O)[O-].CC(=O)Oc1ccccc1C(=O)[O-].[Cu+2] [Cu(ASA)2]
[3]
  % activity of each single compound: Cu(ASA)2: 32 ppm*** (45) %
